Test results from patent US11046716B2, “Beta-lactamase inhibitors” (priority 2015, dated 2021).

Experiments:
SHV-5 = molecular target: T1, SHV-5 (Klebsiella pneumoniae, UniProt P0A3M1); test: β-lactamase enzyme inhibition assay, SHV-5 (cefotaxime substrate); assay type: biochemical
T1 construct: made in house; host or cells: E. coli BL21(DE3)
In short: (§1)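 Untagged enzyme from E. coli BL21(DE3), purified by Capto S then Superdex 75; 15 min 37 °C preincubation with inhibitor; KPC-2 read with imipenem at 300 nm, SHV-5 with cefotaxime at 260 nm, OXA-1 with nitrocefin 100 μM final at 486 nm; 10 min kinetic read; IC50 vs uninhibited wells.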

VIM-2 = molecular target: T2, VIM-2 (Escherichia coli, UniProt Q5U7L7); test: β-lactamase enzyme inhibition assay, VIM-2 (nitrocefin substrate); assay type: biochemical; conditions: Class B; nitrocefin substrate, 486 nm; read-out: VIM-2
T2 construct: made in house; host or cells: E. coli BL21(DE3)
In short: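 Metallo-β-lactamase VIM-2 activity was tracked spectrophotometrically at 486 nm with 100 μM nitrocefin over 10 min, following 15 min preincubation with compound at 37 °C; inhibition was calculated per concentration.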

KPC-2 = molecular target: T3, KPC-2 (Klebsiella pneumoniae, UniProt Q9F663); test: β-lactamase enzyme inhibition assay, KPC-2 (imipenem substrate); assay type: biochemical; conditions: Class A; imipenem substrate, 300 nm; read-out: KPC-2
T3 construct: made in house; host or cells: E. coli BL21(DE3)
T3 sequence (Q9F663 25-293, looked up): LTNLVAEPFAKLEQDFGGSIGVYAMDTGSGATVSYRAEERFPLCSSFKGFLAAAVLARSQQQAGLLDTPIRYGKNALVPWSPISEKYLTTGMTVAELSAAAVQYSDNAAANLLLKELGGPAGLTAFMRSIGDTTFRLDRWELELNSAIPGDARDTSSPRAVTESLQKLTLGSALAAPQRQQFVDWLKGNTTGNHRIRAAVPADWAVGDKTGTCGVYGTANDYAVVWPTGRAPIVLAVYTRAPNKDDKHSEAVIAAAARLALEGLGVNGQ
In short: as §1

OXA-48 = OXA-48 (UniProt Q6XEC0); test: β-lactamase enzyme inhibition assay, Class D oxacillinase; assay type: biochemical; conditions: read-out: OXA-48
[1] = system: K. pneumoniae expressing the class A carbapenemase KPC-2 and the class B carbapenemase VIM-4; test: Broth microdilution MIC assay with meropenem, K. pneumoniae KPC-2 and VIM-4; assay type: cell-based; conditions: Fixed Mero (meropenem) 4 μg/mL; K. p. A-1797 KPC-2 VIM-4
In short: (§2)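 In cation-adjusted Mueller Hinton broth, bacteria pre-grown 3-5 hours were exposed to test compound (2-fold, 16–0.125 μg/mL) plus a static 4 μg/ml β-lactam. A panel of control β-lactams was run alongside, and the compound MIC was judged by eye following 16-20 hours at 37° C.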

[2] = system: P. aeruginosa expressing the Class B carbapenemase VIM-2; test: Broth microdilution MIC assay with meropenem, P. aeruginosa VIM-2; assay type: cell-based; conditions: Fixed Mero (meropenem) 4 μg/mL; P. aerug. 2775 VIM-2
In short: as §2

[3] = system: E. cloacae expressing the Class C P99; test: Broth microdilution MIC assay with ceftazidime, E. cloacae P99; assay type: cell-based; conditions: Fixed CAZ (ceftazidime) 4 μg/mL; E. cl. 144200 p99 AmpC
In short: as §2

[4] = system: K. pneumoniae producing the Class D carbapenemase OXA-48; test: Broth microdilution MIC assay with meropenem, K. pneumoniae OXA-48; assay type: cell-based; conditions: Fixed Mero (meropenem) 4 μg/mL; K. p. 11978 OXA-48
In short: as §2

[5] = system: K. pneumoniae expressing the Class A carbapenemase KPC-2; test: Broth microdilution MIC assay with meropenem, K. pneumoniae KPC-2; assay type: cell-based; conditions: Fixed Mero (meropenem) 4 μg/mL; K. p. 156319 KPC-3
In short: as §2

AmpC = molecular target: T4, AmpC (Enterobacter cloacae, UniProt P05364); test: β-lactamase enzyme inhibition assay, p99 AmpC (nitrocefin substrate); assay type: biochemical
T4 construct: made in house; host or cells: E. coli BL21(DE3)
T4 sequence (P05364 21-381): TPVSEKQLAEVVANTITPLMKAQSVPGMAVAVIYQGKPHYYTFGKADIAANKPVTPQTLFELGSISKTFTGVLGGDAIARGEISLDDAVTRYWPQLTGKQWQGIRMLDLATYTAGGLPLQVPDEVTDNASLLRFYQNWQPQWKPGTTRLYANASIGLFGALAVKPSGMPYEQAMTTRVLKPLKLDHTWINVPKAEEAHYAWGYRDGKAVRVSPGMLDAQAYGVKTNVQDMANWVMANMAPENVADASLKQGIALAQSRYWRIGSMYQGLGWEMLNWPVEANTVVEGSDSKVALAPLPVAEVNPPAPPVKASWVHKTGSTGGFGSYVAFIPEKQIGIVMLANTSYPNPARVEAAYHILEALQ
In short: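 Untagged enzyme from E. coli BL21(DE3), purified by Capto S then Superdex 75; 15 min 37 °C preincubation with inhibitor; 10 min kinetic read; IC50 vs uninhibited wells.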

[6] = system: E. coli expressing the Class A Extended Spectrum Beta-Lactamase (ESBL) CTX-M-15; test: Broth microdilution MIC assay with ceftazidime, E. coli CTX-M-15; assay type: cell-based; conditions: Fixed CAZ (ceftazidime) 4 μg/mL; E. coli ESBL4 CTX-M-15
In short: as §2

T1 sequence (P0A3M1 22-286): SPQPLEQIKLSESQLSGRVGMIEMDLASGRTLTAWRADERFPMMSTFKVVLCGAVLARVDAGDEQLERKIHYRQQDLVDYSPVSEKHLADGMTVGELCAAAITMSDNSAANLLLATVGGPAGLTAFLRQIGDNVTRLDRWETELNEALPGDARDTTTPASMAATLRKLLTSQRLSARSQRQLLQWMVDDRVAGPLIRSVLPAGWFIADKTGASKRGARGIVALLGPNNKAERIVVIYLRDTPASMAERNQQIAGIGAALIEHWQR

SMILES | IC50 (SHV-5) | IC50 (VIM-2) | IC50 (KPC-2) | IC50 (OXA-48) | MIC (μg/mL) of Exemplary Compounds in presence of fixed β-lactams: K. p. A-1797 KPC-2 VIM-4 [1] | MIC (μg/mL) of Exemplary Compounds in presence of fixed β-lactams: P. aerug. 2775 VIM-2 [2] | MIC (μg/mL) of Exemplary Compounds in presence of fixed β-lactams: E. cl. 144200 p99 AmpC [3] | MIC (μg/mL) of Exemplary Compounds in presence of fixed β-lactams: K. p. 11978 OXA-48 [4] | MIC (μg/mL) of Exemplary Compounds in presence of fixed β-lactams: K. p. 156319 KPC-3 [5] | IC50 (AmpC) | MIC (μg/mL) of Exemplary Compounds in presence of fixed β-lactams: E. coli ESBL4 CTX-M-15 [6]
CCn1nnnc1CC(=O)N[C@H]1Cc2cccc(C(=O)O)c2OB1O [Example 54, (R)-3-(2-(1-ethyl-1H-tetrazol-5-yl)acetamido)-2-hydroxy-3,4-dihydro-2H-benzo[e][1,2]oxaborinine-8-carboxylic acid] | < 100 nM | 100 to 1000 nM | < 100 nM | 1000 to 10000 nM | B (B represents an MIC between 1 and 16 μg/mL inclusive) | B (B represents an MIC between 1 and 16 μg/mL inclusive) | C (C represents an MIC of <1 μg/mL) | B (B represents an MIC between 1 and 16 μg/mL inclusive) | B (B represents an MIC between 1 and 16 μg/mL inclusive) | < 100 nM | C (C represents an MIC of <1 μg/mL)
O=C(Cn1cc(C(=O)N[C@@H]2CCNC2)nn1)N[C@H]1Cc2cccc(C(=O)O)c2OB1O [Example 84, (R)-2-hydroxy-3-(2-(4-(((R)-pyrrolidin-3-yl)carbamoyl)-1H-1,2,3-triazol-1-yl)acetamido)-3,4-dihydro-2H-benzo[e][1,2]oxaborinine-8-carboxylic acid] | 100 to 1000 nM | < 100 nM | < 100 nM | 100 to 1000 nM | C (C represents an MIC of <1 μg/mL) | C (C represents an MIC of <1 μg/mL) | C (C represents an MIC of <1 μg/mL) | B (B represents an MIC between 1 and 16 μg/mL inclusive) | B (B represents an MIC between 1 and 16 μg/mL inclusive) | < 100 nM | C (C represents an MIC of <1 μg/mL)
O=C(Cn1cc2c(n1)CNC2)N[C@H]1Cc2cccc(C(=O)O)c2OB1O [Example 57, (R)-3-(2-(5,6-dihydropyrrolo[3,4-c]pyrazol-2(4H)-yl)acetamido)-2-hydroxy-3,4-dihydro-2H-benzo[e][1,2]oxaborinine-8-carboxylic acid] | < 100 nM | 100 to 1000 nM | < 100 nM | 1000 to 10000 nM | B (B represents an MIC between 1 and 16 μg/mL inclusive) | B (B represents an MIC between 1 and 16 μg/mL inclusive) | C (C represents an MIC of <1 μg/mL) | B (B represents an MIC between 1 and 16 μg/mL inclusive) | C (C represents an MIC of <1 μg/mL) | < 100 nM | C (C represents an MIC of <1 μg/mL)
O=C(Cn1cc(C(=O)NC2CNC2)nn1)N[C@H]1Cc2cccc(C(=O)O)c2OB1O [Example 88, (R)-3-(2-(4-(azetidin-3-ylcarbamoyl)-1H-1,2,3-triazol-1-yl)acetamido)-2-hydroxy-3,4-dihydro-2H-benzo[e][1,2]oxaborinine-8-carboxylic acid] | 100 to 1000 nM | < 100 nM | < 100 nM | 1000 to 10000 nM | C (C represents an MIC of <1 μg/mL) | C (C represents an MIC of <1 μg/mL) | C (C represents an MIC of <1 μg/mL) | B (B represents an MIC between 1 and 16 μg/mL inclusive) | B (B represents an MIC between 1 and 16 μg/mL inclusive) | < 100 nM | C (C represents an MIC of <1 μg/mL)
NCCn1cc(C(=O)N[C@H]2Cc3cccc(C(=O)O)c3OB2O)nn1 [Example 59, (R)-3-(1-(2-aminoethyl)-1H-1,2,3-triazole-4-carboxamido)-2-hydroxy-3,4-dihydro-2H-benzo[e][1,2]oxaborinine-8-carboxylic acid] | < 100 nM | < 100 nM | < 100 nM | 1000 to 10000 nM | B (B represents an MIC between 1 and 16 μg/mL inclusive) | C (C represents an MIC of <1 μg/mL) | C (C represents an MIC of <1 μg/mL) | A (A represents an MIC>16 μg/mL) | B (B represents an MIC between 1 and 16 μg/mL inclusive) | < 100 nM | C (C represents an MIC of <1 μg/mL)
NCc1nnc(CC(=O)N[C@H]2Cc3cccc(C(=O)O)c3OB2O)[nH]1 [Example 23, (R)-3-(2-(5-(aminomethyl)-4H-1,2,4-triazol-3-yl)acetamido)-2-hydroxy-3,4-dihydro-2H-benzo[e][1,2]oxaborinine-8-carboxylic acid] | < 100 nM | 100 to 1000 nM | < 100 nM | 100 to 1000 nM | B (B represents an MIC between 1 and 16 μg/mL inclusive) | C (C represents an MIC of <1 μg/mL) | C (C represents an MIC of <1 μg/mL) | B (B represents an MIC between 1 and 16 μg/mL inclusive) | C (C represents an MIC of <1 μg/mL) | < 100 nM | C (C represents an MIC of <1 μg/mL)
NCc1cnn(CC(=O)N[C@H]2Cc3cccc(C(=O)O)c3OB2O)c1 [Example 68, (R)-3-(2-(4-(aminomethyl)-1H-pyrazol-1-yl)acetamido)-2-hydroxy-3,4-dihydro-2H-benzo[e][1,2]oxaborinine-8-carboxylic acid] | 100 to 1000 nM | 100 to 1000 nM | < 100 nM | 100 to 1000 nM | B (B represents an MIC between 1 and 16 μg/mL inclusive) | C (C represents an MIC of <1 μg/mL) | C (C represents an MIC of <1 μg/mL) | B (B represents an MIC between 1 and 16 μg/mL inclusive) | C (C represents an MIC of <1 μg/mL) | < 100 nM | C (C represents an MIC of <1 μg/mL)
